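A five-concentration, 48-hour dose response in 96-well plates underlies each endpoint, interpolated linearly between surrounding concentrations. Here, GI50 denotes the concentration required for 50% inhibition of growth. TGI marks complete inhibition of growth.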
Key:
Assay in all cases: DTP human tumour cell line panel, 48 h
786-0 renal = system: 786-0 renal
A498 renal = system: A498 renal
A549 NSCLC = system: A549 NSCLC
ACHN renal = system: ACHN renal
BT-549 breast = system: BT-549 breast
CAKI-1 renal = system: CAKI-1 renal
CCRF-CEM leukemia = system: CCRF-CEM leukemia
COLO 205 colon = system: COLO 205 colon
DU-145 prostate = system: DU-145 prostate
EKVX NSCLC = system: EKVX NSCLC
HCC-2998 colon = system: HCC-2998 colon
HCT-116 colon = system: HCT-116 colon
HCT-15 colon = system: HCT-15 colon
HL-60(TB) leukemia = system: HL-60(TB) leukemia
HOP-62 NSCLC = system: HOP-62 NSCLC
HOP-92 NSCLC = system: HOP-92 NSCLC
HT29 colon = system: HT29 colon
IGROV1 ovarian = system: IGROV1 ovarian
K-562 leukemia = system: K-562 leukemia
KM12 colon = system: KM12 colon
LOX IMVI melanoma = system: LOX IMVI melanoma
M14 melanoma = system: M14 melanoma
MALME-3M melanoma = system: MALME-3M melanoma
MCF7 breast = system: MCF7 breast
MDA-MB-231 breast = system: MDA-MB-231 breast
MDA-MB-435 = system: MDA-MB-435
MDA-MB-468 breast = system: MDA-MB-468 breast
MOLT-4 leukemia = system: MOLT-4 leukemia
NCI-H226 lung = system: NCI-H226 lung
NCI-H23 lung = system: NCI-H23 lung
NCI-H460 lung = system: NCI-H460 lung
NCI-H522 lung = system: NCI-H522 lung
OVCAR-3 ovarian = system: OVCAR-3 ovarian
OVCAR-4 ovarian = system: OVCAR-4 ovarian
OVCAR-5 ovarian = system: OVCAR-5 ovarian
OVCAR-8 ovarian = system: OVCAR-8 ovarian
PC-3 prostate = system: PC-3 prostate
RPMI-8226 leukemia = system: RPMI-8226 leukemia
RXF 393 renal = system: RXF 393 renal
SF-268 CNS = system: SF-268 CNS
SF-295 CNS = system: SF-295 CNS
SF-539 CNS = system: SF-539 CNS
SK-MEL-2 melanoma = system: SK-MEL-2 melanoma
SK-MEL-28 melanoma = system: SK-MEL-28 melanoma
SK-MEL-5 melanoma = system: SK-MEL-5 melanoma
SK-OV-3 ovarian = system: SK-OV-3 ovarian
SN12C renal = system: SN12C renal
SNB-19 CNS = system: SNB-19 CNS
SNB-75 CNS = system: SNB-75 CNS
SR leukemia = system: SR leukemia
SW-620 colon = system: SW-620 colon
T-47D breast = system: T-47D breast
TK-10 renal = system: TK-10 renal
U251 CNS = system: U251 CNS
UACC-257 melanoma = system: UACC-257 melanoma
UACC-62 melanoma = system: UACC-62 melanoma
UO-31 renal = system: UO-31 renal

COc1cc(/C=C/C(=O)c2ccc(S(=O)(=O)NCCNc3nc(N(C)C)nc(N4CCOCC4)n3)cc2)cc(OC)c1OC
GI50 (786-0 renal): 1.89 µM
TGI (786-0 renal): 3.68 µM
GI50 (A498 renal): 14.2 µM
TGI (A498 renal): 27.4 µM
GI50 (A549 NSCLC): 3.55 µM
TGI (A549 NSCLC): 14 µM
GI50 (ACHN renal): 1.78 µM
TGI (ACHN renal): 3.46 µM
GI50 (BT-549 breast): 2.01 µM
TGI (BT-549 breast): 3.73 µM
GI50 (CAKI-1 renal): 10.6 µM
TGI (CAKI-1 renal): 23.3 µM
GI50 (CCRF-CEM leukemia): 2.07 µM
TGI (CCRF-CEM leukemia): 7.25 µM
GI50 (COLO 205 colon): 2.14 µM
TGI (COLO 205 colon): 5.03 µM
GI50 (DU-145 prostate): 3.31 µM
TGI (DU-145 prostate): 11.6 µM
GI50 (EKVX NSCLC): 3.74 µM
TGI (EKVX NSCLC): 19.8 µM
GI50 (HCC-2998 colon): 1.8 µM
TGI (HCC-2998 colon): 3.26 µM
GI50 (HCT-116 colon): 1.56 µM
TGI (HCT-116 colon): 3.04 µM
GI50 (HCT-15 colon): 1.82 µM
TGI (HCT-15 colon): 3.91 µM
GI50 (HL-60(TB) leukemia): 1.97 µM
TGI (HL-60(TB) leukemia): 7.34 µM
GI50 (HOP-62 NSCLC): 2.66 µM
TGI (HOP-62 NSCLC): 8.72 µM
GI50 (HOP-92 NSCLC): 7.27 µM
TGI (HOP-92 NSCLC): 25.7 µM
GI50 (HT29 colon): 1.72 µM
TGI (HT29 colon): 3.19 µM
GI50 (IGROV1 ovarian): 2.6 µM
TGI (IGROV1 ovarian): 7.54 µM
GI50 (K-562 leukemia): 1.46 µM
TGI (K-562 leukemia): > 100 µM
GI50 (KM12 colon): 1.7 µM
TGI (KM12 colon): 3.33 µM
GI50 (LOX IMVI melanoma): 1.64 µM
TGI (LOX IMVI melanoma): 3.07 µM
GI50 (M14 melanoma): 2.18 µM
TGI (M14 melanoma): 6.34 µM
GI50 (MALME-3M melanoma): 1.97 µM
TGI (MALME-3M melanoma): 4.31 µM
GI50 (MCF7 breast): 1.64 µM
TGI (MCF7 breast): 3.98 µM
GI50 (MDA-MB-231 breast): 2.9 µM
TGI (MDA-MB-231 breast): 7.55 µM
GI50 (MDA-MB-435): 1.9 µM
TGI (MDA-MB-435): 4.02 µM
GI50 (MDA-MB-468 breast): 1.69 µM
TGI (MDA-MB-468 breast): 3.36 µM
GI50 (MOLT-4 leukemia): 2.23 µM
TGI (MOLT-4 leukemia): 9.28 µM
GI50 (NCI-H226 lung): 11.4 µM
TGI (NCI-H226 lung): 28.8 µM
GI50 (NCI-H23 lung): 3.09 µM
TGI (NCI-H23 lung): 12.3 µM
GI50 (NCI-H460 lung): 3.17 µM
TGI (NCI-H460 lung): 10.4 µM
GI50 (NCI-H522 lung): 1.66 µM
TGI (NCI-H522 lung): 3.25 µM
GI50 (OVCAR-3 ovarian): 2.02 µM
TGI (OVCAR-3 ovarian): 4.23 µM
GI50 (OVCAR-4 ovarian): 2.21 µM
TGI (OVCAR-4 ovarian): 6.35 µM
GI50 (OVCAR-5 ovarian): 2.83 µM
TGI (OVCAR-5 ovarian): 7.57 µM
GI50 (OVCAR-8 ovarian): 2.3 µM
TGI (OVCAR-8 ovarian): 6.07 µM
GI50 (PC-3 prostate): 3.76 µM
TGI (PC-3 prostate): 13.6 µM
GI50 (RPMI-8226 leukemia): 1.39 µM
TGI (RPMI-8226 leukemia): 4.66 µM
GI50 (RXF 393 renal): 1.22 µM
TGI (RXF 393 renal): 3.24 µM
GI50 (SF-268 CNS): 3.16 µM
TGI (SF-268 CNS): 12.5 µM
GI50 (SF-295 CNS): 3.04 µM
TGI (SF-295 CNS): 11.9 µM
GI50 (SF-539 CNS): 1.81 µM
TGI (SF-539 CNS): 3.37 µM
GI50 (SK-MEL-2 melanoma): 10.7 µM
TGI (SK-MEL-2 melanoma): 22.9 µM
GI50 (SK-MEL-28 melanoma): 2.12 µM
TGI (SK-MEL-28 melanoma): 4.8 µM
GI50 (SK-MEL-5 melanoma): 7.9 µM
TGI (SK-MEL-5 melanoma): 20.7 µM
GI50 (SK-OV-3 ovarian): 14.3 µM
TGI (SK-OV-3 ovarian): 27.4 µM
GI50 (SN12C renal): 2.72 µM
TGI (SN12C renal): 8.71 µM
GI50 (SNB-19 CNS): 4.28 µM
TGI (SNB-19 CNS): 16.2 µM
GI50 (SNB-75 CNS): 1.56 µM
TGI (SNB-75 CNS): 15.5 µM
GI50 (SR leukemia): 1.88 µM
TGI (SR leukemia): 7.84 µM
GI50 (SW-620 colon): 1.9 µM
TGI (SW-620 colon): 3.75 µM
GI50 (T-47D breast): 5.74 µM
TGI (T-47D breast): 23.3 µM
GI50 (TK-10 renal): 13.1 µM
TGI (TK-10 renal): 25.9 µM
GI50 (U251 CNS): 1.54 µM
TGI (U251 CNS): 2.92 µM
GI50 (UACC-257 melanoma): 5.86 µM
TGI (UACC-257 melanoma): 18.5 µM
GI50 (UACC-62 melanoma): 2.14 µM
TGI (UACC-62 melanoma): 5.54 µM
GI50 (UO-31 renal): 1.57 µM
TGI (UO-31 renal): 3.15 µM

Source: PubChem BioAssay (NCI)
